Experimental data reported in patent publication US20250129021A1, “SMALL MOLECULE PROTEIN SYNTHESIS MODULATORS” (Interdict Bio, Inc., priority 2023, published 2025).

Columns and labels:
KRAS G12D = experiment: In vitro transcription-translation (IVTT) assay, KRAS G12D reporter; format: biochemical; details: HeLa S3 lysate, sfGFP/mCherry ratio, 2 hrs at 30° C.
How it was run: (§1)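 Reporter: mCherry, P2A, then 3×FLAG-target peptide-sfGFP fusion, IRES-initiated; HeLa S3 lysate IVTT; cpd dilutions 30 μM−0.1 μM half-log in 100% DMSO (dilution-plate conc); DNA added last; 2 h, 30° C; PBS quench.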

MCF7 = experiment: Cell viability (CellTiter-Fluor), MCF7; format: cell-based; details: Homo sapiens, 24-72 hrs
Experimental: (§2) Count and dispense 2,000-10,000 cells per well (100 μL volume) in black 96-well tissue culture microplate and let cells adhere overnight. Add compound dissolved in 100% DMSO to each well as needed and incubate cells in standard culture conditions for 24-72 hrs. Final DMSO concentration in each well should be 0.1-0.5%. At the desired time point, gently aspirate compound containing media and replace with PBS to wash. Repeat wash step for 2 total washes. Remove PBS and add 100 μL CellTiter-Fluor reagent (Promega) reagent to each well. Seal plate and incubate 1 hr at room temperature with orbital shaking. Analyze fluorescence using plate reader to quantify viable cells compared with vehicle (DMSO) control.

HEK 293T = experiment: Cell viability (CellTiter-Fluor), HEK 293T; format: cell-based; details: Homo sapiens, 24-72 hrs
Experimental: as §2

MCL-1 = experiment: In vitro transcription-translation (IVTT) assay, MCL-1 reporter; format: biochemical; details: HeLa S3 lysate, sfGFP/mCherry ratio, 2 hrs at 30° C.
How it was run: as §1

BCL-2 = experiment: In vitro transcription-translation (IVTT) assay, BCL-2 reporter; format: biochemical; details: HeLa S3 lysate, sfGFP/mCherry ratio, 2 hrs at 30° C.
How it was run: as §1

MYC = experiment: In vitro transcription-translation (IVTT) assay, MYC reporter; format: biochemical; details: HeLa S3 lysate, sfGFP/mCherry ratio, 2 hrs at 30° C.
How it was run: as §1

ALK = experiment: In vitro transcription-translation (IVTT) assay, ALK reporter; format: biochemical; details: HeLa S3 lysate, sfGFP/mCherry ratio, 2 hrs at 30° C.
How it was run: as §1

NCI-H1915 = experiment: Cell viability (CellTiter-Fluor), NCI-H1915; format: cell-based; details: 24-72 hrs
Experimental: as §2

CCND1 = experiment: In vitro transcription-translation (IVTT) assay, CCND1 reporter; format: biochemical; details: HeLa S3 lysate, sfGFP/mCherry ratio, 2 hrs at 30° C.
How it was run: as §1

HPAF-II = experiment: Cell viability (CellTiter-Fluor), HPAF-II; format: cell-based; details: Homo sapiens, 24-72 hrs
Experimental: as §2

LS411N = experiment: Cell viability (CellTiter-Fluor), LS411N; format: cell-based; details: Homo sapiens, LS-411N, 24-72 hrs
Experimental: as §2

HEPG2 = experiment: Cell viability (CellTiter-Fluor), HEPG2; format: cell-based; details: Homo sapiens, 24-72 hrs
Experimental: as §2

KLE = experiment: Cell viability (CellTiter-Fluor), KLE; format: cell-based; details: Homo sapiens, 24-72 hrs
Experimental: as §2

Row | IC50 (KRAS G12D) [µM] | IC50 (MCF7) [µM] | IC50 (MCL-1) [µM] | IC50 (BCL-2) [µM] | IC50 (MYC) [µM] | IC50 (ALK) [µM] | IC50 (NCI-H1915) [µM] | IC50 (CCND1) [µM] | IC50 (HEPG2) [µM] | SMILES | IC50 (HEK 293T) [µM] | IC50 (HPAF-II) [µM] | IC50 (LS411N) [µM] | IC50 (KLE) [µM]
1 | 10 to 20 | 1 to 4 | < 10 | 10 to 20 | < 10 |  |  |  |  | COc1ccc(C[C@H]2NC[C@H](O)[C@H]2OC(=O)NC[C@@H]2CCNC2)cc1 [V187685, (2R,3S,4S)-4-hydroxy-2-[(4-methoxyphenyl)methyl]pyrrolidin-3-yl N-[(3R)-pyrrolidin-3-ylmethyl]carbamate] | ≥ 4 |  |  | 
2 | 10 to 20 | 1 to 4 |  |  | < 10 | < 10 | ≥ 4 | 10 to 20 |  | COc1ccc(C[C@H]2NC[C@H](O)[C@H]2OC(=O)NC[C@H]2CCNC2)cc1 [V187686, (2R,3S,4S)-4-hydroxy-2-(4-methoxybenzyl)pyrrolidin-3-yl (((S)-pyrrolidin-3-yl)methyl)carbamate] | ≥ 4 | ≥ 4 | ≥ 4 | 
3 |  | 0.25 to 1 | < 10 | 10 to 20 | < 10 |  | ≥ 4 |  | 1 to 4 | COc1ccc(C[C@H]2NC[C@H](O)[C@H]2OC(=O)NCC[C@@H]2CCNC2)cc1 [V187878, (2R,3S,4S)-4-hydroxy-2-[(4-methoxyphenyl)methyl]pyrrolidin-3-yl N-{2-[(3S)-pyrrolidin-3-yl]ethyl}carbamate] | ≥ 4 | ≥ 4 | 1 to 4 | ≥ 4
4 |  | 0.25 to 1 | < 10 | < 10 | < 10 |  | 0.25 to 1 | < 10 | 1 to 4 | COc1ccc(C[C@H]2NC[C@H](O)[C@H]2OC(=O)NCc2ccnnc2)cc1 [V187917, (2R,3S,4S)-4-hydroxy-2-[(4-methoxyphenyl)methyl]pyrrolidin-3-yl N-(pyridazin-4-ylmethyl)carbamate] | < 0.25 | 1 to 4 | 0.25 to 1 | 0.25 to 1
5 |  | 1 to 4 | < 10 | < 10 | < 10 |  |  | < 10 |  | COc1ccc(C[C@H]2NC[C@H](O)[C@H]2OC(=O)NCCc2ccncc2C#N)cc1 [V187940, (2R,3S,4S)-4-hydroxy-2-[(4-methoxyphenyl)methyl]pyrrolidin-3-yl N-[2-(3-cyanopyridin-4-yl)ethyl]carbamate] | 0.25 to 1 |  |  | 
6 |  | 0.25 to 1 | < 10 | < 10 | < 10 |  | 0.25 to 1 | < 10 | ≥ 4 | COc1ccc(C[C@H]2NC[C@H](O)[C@H]2OC(=O)NCc2ccnc(N)c2)cc1 [V187988, (2R,3S,4S)-4-hydroxy-2-[(4-methoxyphenyl)methyl]pyrrolidin-3-yl N-[(2-aminopyridin-4-yl)methyl]carbamate] | 0.25 to 1 | 1 to 4 | 0.25 to 1 | 0.25 to 1
